# Test results as given in the NIST ThermoML archive (doi:10.1016/j.tca.2014.05.034).
# ± gives the expanded uncertainty stated by the source.
# Key:
# [1] = 100 kPa, Liquid; for kinematic viscosity: Capillary tube (Ostwald / Ubbelohde) method; for mass density: Pycnometric method
# [2] = xn = mol fraction of the nth substance listed; conditions: 100 kPa, Liquid, x2 = 0; for kinematic viscosity: Capillary tube (Ostwald / Ubbelohde) method; for mass density: Pycnometric method
smiles,measurement,setting,value
OCCOCCO [diethylene glycol],kinematic viscosity,[1]; 298.15 K,2.47e-05 ± 2e-07 m2/s
same,mass density,[1]; 298.15 K,1112.8 ± 0.7 kg/m3
same,kinematic viscosity,[1]; 303.15 K,1.96e-05 ± 2e-07 m2/s
same,mass density,[1]; 303.15 K,1109.2 ± 0.7 kg/m3
same,kinematic viscosity,[1]; 308.15 K,1.53e-05 ± 1e-07 m2/s
same,mass density,[1]; 308.15 K,1105.6 ± 0.7 kg/m3
same,kinematic viscosity,[1]; 313.15 K,1.29e-05 ± 1e-07 m2/s
same,mass density,[1]; 313.15 K,1102.3 ± 0.7 kg/m3
same,kinematic viscosity,[1]; 318.15 K,1.1e-05 ± 1e-07 m2/s
same,mass density,[1]; 318.15 K,1099.2 ± 0.7 kg/m3
OCCOCCO [diethylene glycol] + NCCN,kinematic viscosity,[2]; 298.15 K,2.47e-05 ± 2e-07 m2/s
same,mass density,[2]; 298.15 K,1112.8 ± 0.7 kg/m3
same,kinematic viscosity,[2]; 303.15 K,1.96e-05 ± 2e-07 m2/s
same,mass density,[2]; 303.15 K,1109.2 ± 0.7 kg/m3
same,kinematic viscosity,[2]; 308.15 K,1.53e-05 ± 1e-07 m2/s
same,mass density,[2]; 308.15 K,1105.6 ± 0.7 kg/m3
same,kinematic viscosity,[2]; 313.15 K,1.29e-05 ± 1e-07 m2/s
same,mass density,[2]; 313.15 K,1102.3 ± 0.7 kg/m3
same,kinematic viscosity,[2]; 318.15 K,1.1e-05 ± 1e-07 m2/s
same,mass density,[2]; 318.15 K,1099.2 ± 0.7 kg/m3
"NCCN [ethane-1,2-diamine]",kinematic viscosity,[1]; 298.15 K,1.56e-06 ± 1e-08 m2/s
same,mass density,[1]; 298.15 K,893.3 ± 0.7 kg/m3
same,kinematic viscosity,[1]; 303.15 K,1.39e-06 ± 1e-08 m2/s
same,mass density,[1]; 303.15 K,888.8 ± 0.7 kg/m3
same,kinematic viscosity,[1]; 308.15 K,1.27e-06 ± 1e-08 m2/s
same,mass density,[1]; 308.15 K,884.9 ± 0.7 kg/m3
same,kinematic viscosity,[1]; 313.15 K,1.17e-06 ± 1e-08 m2/s
same,mass density,[1]; 313.15 K,880 ± 0.7 kg/m3
same,kinematic viscosity,[1]; 318.15 K,1.08e-06 ± 1e-08 m2/s
same,mass density,[1]; 318.15 K,875.2 ± 0.7 kg/m3
